Earlier results, collected in patent US20050003017A1, “Hypotensive and hypertensive properties of renomedullar extracts” (priority 2000, published 2005).

Conditions: low stability; Svensson et al.

In the case of `CCCCC[C@H](O)/C=C/[C@H]1O[C@H]2C[C@H](O2)[C@@H]1C/C=C\CCCC(=O)O` [thromboxan A2], the half life is given as “about 30 seconds”.
